Legend:
[1] = target: T1, GCN2 (Homo sapiens, UniProt Q9P2K8); assay: In vitro phosphorylation assay: GCN2 activation (auto-phosphorylation); format: biochemical; conditions: without IN, read-out: GCN2 auto-phosphorylation signal, % of the DMSO control
T1 construct: expressed as a truncated version (192-1024) in fusion after a glutathione S-transferase tag; purchased SignalChem E12-11G
T1 sequence (Q9P2K8 192-1024): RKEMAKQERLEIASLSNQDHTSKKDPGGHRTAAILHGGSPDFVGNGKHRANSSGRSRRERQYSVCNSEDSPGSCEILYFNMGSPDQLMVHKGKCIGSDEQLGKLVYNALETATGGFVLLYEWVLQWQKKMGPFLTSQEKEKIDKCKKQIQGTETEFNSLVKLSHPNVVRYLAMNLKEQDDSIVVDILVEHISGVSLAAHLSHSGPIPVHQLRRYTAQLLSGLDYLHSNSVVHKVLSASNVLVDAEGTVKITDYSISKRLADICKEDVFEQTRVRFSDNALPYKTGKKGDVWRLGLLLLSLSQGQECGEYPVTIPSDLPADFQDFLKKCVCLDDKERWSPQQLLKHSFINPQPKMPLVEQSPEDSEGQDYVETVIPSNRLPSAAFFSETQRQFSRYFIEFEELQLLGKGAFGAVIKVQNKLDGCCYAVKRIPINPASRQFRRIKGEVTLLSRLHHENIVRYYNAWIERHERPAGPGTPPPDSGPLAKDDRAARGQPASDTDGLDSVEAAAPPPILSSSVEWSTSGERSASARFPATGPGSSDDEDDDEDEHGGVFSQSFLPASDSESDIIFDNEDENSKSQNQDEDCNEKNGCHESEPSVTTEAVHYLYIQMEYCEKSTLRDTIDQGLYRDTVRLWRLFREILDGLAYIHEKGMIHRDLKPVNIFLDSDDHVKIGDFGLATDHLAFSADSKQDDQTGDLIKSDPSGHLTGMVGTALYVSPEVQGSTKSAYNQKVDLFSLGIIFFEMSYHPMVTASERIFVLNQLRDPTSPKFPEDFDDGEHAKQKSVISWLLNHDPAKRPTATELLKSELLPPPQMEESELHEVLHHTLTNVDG

[2] = target: T2, IN's phosphorylation catalyzed by GCN2 (Homo sapiens, UniProt Q9P2K8); assay: In vitro phosphorylation assay: phosphorylation of IN catalyzed by GCN2; format: biochemical, human GCN2 / HIV-1 IN
T2 construct: expressed as a truncated version (192-1024) in fusion after a glutathione S-transferase tag; purchased SignalChem (GCN2); IN made in house in E. coli BL21 pLys E12-11G; host or cells: E. coli BL21 pLys (IN)
T2 sequence (Q9P2K8 192-1024): T1 sequence (Q9P2K8 192-1024)
Experimental: Enzymes. GCN2 was purchased from SignalChem (EIF2AK4, cat. #E12-11G). […] Recombinant full-length IN was expressed in E. coli BL21 pLys (IPTG induction) and purified on a nickel chelating column, as described. Integrity and purity were checked by direct Coomassie coloration of elution fractions on SDS-PAGE before dialysis to remove imidazole.
In vitro phosphorylation assay. […] Reactions (20 µL) were stopped after a 60 min incubation at 30 °C by adding 10 µL of loading buffer [80 mM Tris-HCl pH 6.8, 100 mM DTT, 10% glycerol, 1% sodium dodecyl sulfate (SDS) and 0.05% bromophenol blue]. Samples were then loaded onto a 10% denaturating SDS-PAGE. After protein separation (120 V for 120 min) the gel was stained using Coomassie Brilliant Blue R-250. Autoradiography was performed using an imaging plate (Fujifilm, Tokyo, Japan) and images were obtained with a FLA-5000 Imaging System (Fujifilm).

[3] = target: T3, HIV-1 IN (Human immunodeficiency virus type 1 group M subtype B, UniProt P04585); assay: Integrase reaction, strand transfer (ST), gel-based; format: biochemical; conditions: serial dilutions from 100 µM to 45.7 nM
T3 construct: Recombinant full-length IN was expressed in E. coli BL21 pLys; 6xHis; made in house; host or cells: E. coli BL21 pLys
Experimental: Oligonucleotides. Oligonucleotides were purchased from Integrated DNA Technologies, Inc. (Leuven, Belgium), purified on polyacrylamide gel through electro-elution and dissolve in water. 19T ([…]) and 21B ([…]) correspond to the cleaved and non-cleaved strands specifically recognized by HIV-1 IN. Radiolabeling of 19T at the 5′-end was performed with [γ-^32P] ATP (Perkin-Elmer, Villebon-sur-Yvette, France) using T4 polynucleotide kinase (Promega, Charbonnières-les-Bains, France), according to the manufacturers’ instructions. Unincorporated isotopes were removed using illustra microspin G-25 Columns (Cytiva life sciences, Amersham, Little Chalfont, United Kingdom). DNA duplexes were annealed using an equimolar ratio of the complementary strand 21B, heating to 95 °C, and slow cooling to room temperature.
Integrase reactions. IN reactions were carried out by adding molecules or an equivalent volume of 100% DMSO (dimethyl sulfoxide, used as the drug solvent) to a mixture of 20 nM duplex DNA (19T/21B) and 400 nM IN in 50 mM MOPS pH 7.2, 7.5 mM MgCl2, and 14 mM 2-mercaptoethanol. Reactions were performed at 37 °C for 1 h and quenched by addition of an equal volume (10 µL) of loading buffer [formamide containing 1% SDS (sodium dodecyl sulfate), 0.25% bromophenol blue, and xylene cyanol]. Reaction products were separated in 16% polyacrylamide denaturing sequencing gels. Dried gels were visualized using a FLA-5000 imaging system (Fujifilm). Densitometric analyses were performed using the ImageQuant 5.1 software (GE Healthcare, Chicago, IL, USA) and data analyzed using Prism 6.05 software (GraphPad, San Diego, CA, USA).

## O=C1c2c(O)ccc(O)c2C(=O)c2c(NCCNCCO)ccc(NCCNCCO)c21 [NSC279836, Mitoxantrone]
[1]
  remaining activity at 100 µM: 145%
[2]; serial dilutions from 300 µM to 137 nM
  concentration giving full inhibition of IN phosphorylation: 300 µM
[2]; serial dilutions from 300 µM to 137 nM, in words
  apparent IC50, IN phosphorylation: low micromolar range
[2]; single dose of 100 µM, compared to DMSO, read-out: decrease (inhibition) in IN phosphorylation
  inhibition at 100 µM: ~65%
[3]; only IN present
  concentrations giving full inhibition of ST activity: above 11 µM
  effect on IN strand transfer activity: active
[3]; in words
  apparent IC50, ST activity: low-micromolar range

Source: article PMC8434491, “Targeting the Integrated Stress Response Kinase GCN2 to Modulate Retroviral Integration” (Molecules, 2021)
